{"source": "ChEMBL document CHEMBL1158307", "about": "“Hippospongins AF: New Furanoterpenes from a Southern Australian Marine Sponge Hippospongia sp” (J Nat Prod, 1996)", "system": "Staphylococcus aureus", "assay": "Antibacterial activity against Staphylococcus aureus at 200 ug/disk by standard agar plate assay", "format": "functional, organism-based", "note": "The source made the active and inactive calls. No cut-off for these calls is given here.", "data": [{"smiles": "CC(CCCc1coc(CC(C)C(=O)O)c1)Cc1cc(CCCc2ccoc2)co1", "note": "(stereo unspecified)", "values": [{"measurement": "Activity", "value": "Active"}]}]}
